We go through five compounds from patent US6511959B1, “Use of calcium-activated neutral protease (CANP) inhibitors in pharmaceutical preparations” (Norsk Hydro AS, priority 1991, dated 2003).

Square brackets hold non-standard residues; d marks the D form. Peptide text beside a SMILES is read from it. Nle = CCCC[C@H](N)C(=O)O

For data set [1], the system named is Walker rat tumors. Kind of data set: Calpain inhibitor I and II on growth of Walker rat tumors in vivo. Details: species or system Wistar rats. The following applies: liposomal, 27 mg/100 g rat daily i.p. As to the method:
Male Wistar rats were injected with 10×10^6 Walker tumor cells per rat at the inguinal region. Treatment was started when measurable tumors appeared. Each treatment group consisted of 5 rats. […] Rats were treated with 2 ml liposomal solution of inhibitors at a concentration of 13.5 mg/ml, equivalent to 27 mg/100 g rat, daily by intraperitoneal injection. Rats in the control group received daily injections of saline-filled liposomes. Tumor volume was determined by measuring two diameters with calipers. The data is presented in FIG. 3 in which each data point represents the mean±S.E. tumor volume measurements for 5 rats.

Data set [2] concerns human NHIK 3025 cervix carcinoma cells. The data set is described as follows: Cell survival (colony formation) of cervix carcinoma cells. The following applies: 24 hours treatment, colonies scored after 12 to 14 days. In kind it is cell-based. From the text: Human cells of the established line […], originating from a cervical carcinoma in situ (Nordbye, K. and Oftebro, R., 1969, Exp. Cell Res., 58:458 and Oftebro, R. and Nordbye, K., 1969, Exp. Cell Res., 58:459) were cultivated in medium Eagles minimum essential medium (MEM) supplemented with 10% fetal bovine serum and antibiotics. Cells were routinely grown as monolayers in tissue culture flasks. The cells were kept in continuous exponential growth by frequent reculturing every second or third day. During reculturing, as well as during experiments, the cells were kept in humidified CO2 incubators at 37° C.
In the experiments represented in this example, the proteinaceous CANP inhibitor was additionally purified by gel filtration chromatography.
Cell survival studies were performed by adding inhibitors to exponentially growing, asynchronous cells 2 hours after seeding the cells into plastic Petri dishes at known cell densities. The inhibitor treatment period was 24 hours after which the dishes were rinsed with warm (37° C.) Hanks' balanced salt solution and fresh medium without inhibitor, was added. After 12 to 14 days of incubation (with a medium shift on day 7) colonies of cells were fixed in ethanol and stained with methylene blue. Only colonies containing more than 40 cells were scored as survivors. The percent cell survival is calculated relative to untreated, control dishes.

The test system of data set [3] is P-cells. The data set is described as follows: Cytological changes of cell cultures in continuous presence of the inhibitors. It is filed as cell-based, human. Conditions: continuous presence 72 and 120 h, 2 mg/ml trypsin-chymotrypsin inhibitor, 1 mg/ml aprotinin, leupeptin or E64. As for the experimental part:
(§1) a) Cytological Changes of Cell Cultures in Continuous Presence of the Inhibitors
(§2) The following samples were made up in RPMI-1640 complete medium:
(§3) 2. 2 mg/ml trypsin-chymotrypsin inhibitor
(§4) 6. all five inhibitors at the above mentioned concentrations
(§5) 7. RPMI-1640 medium with no inhibitor addition to serve as a control medium.
(§6) Ten glass Petri dishes (5 cm diameter) were seeded each with 1×10^6 M-cells and another ten dishes were seeded each with 1×10^6 P-cells. Duplicate cell cultures received each type of complete medium containing the inhibitors and control cultures received only complete medium. The cell cultures were incubated at 37° C. in a humidified CO2-incubator for 120 hours. The culture medium was changed with fresh medium containing the same inhibitors at 24 and 72 hours after start of the experiment. Half of the cell cultures were fixed in 50% ethanol 72 hours and the other half 120 hours after initiation of the experiment. All cell cultures were stained according to the Papanicolaou method.

Data set [4] deals with M-cells. The data set is described as above. It is filed as cell-based, human. The following applies: continuous presence 72 and 120 h, 2 mg/ml trypsin-chymotrypsin inhibitor, 1 mg/ml aprotinin, leupeptin or E64. As to the method: as §1, §2, §3, §4, §5, §6

For the compound `CCCC[C@@H](C=O)NC(=O)[C@H](CC(C)C)NC(=O)[C@H](CC(C)C)NC(C)=O` [calpain inhibitor I, N-Acetyl-Leu-Leu-Norleucinal] (Ac-Leu-Leu-[Nle]-aldehyde), the tumor regression result in data set [1] (5 doses) is on record as “approximately 92%”.
Regarding `CC(C)C[C@H](NC(=O)[C@H]1O[C@@H]1C(=O)O)C(=O)NCCCCN=C(N)N` (relative stereo) [E64, L-trans-3-carboxy-oxiran-2-carbonyl-L-leucylagmatine], the “cytotoxic effect (cell survival, FIG. 1)” value in data set [2] was “little cytotoxic effect”. Also, the “effect on growth or cytology compared to control cell cultures” value in data set [3] and in data set [4] was “did not affect the growth or cytology” in each case.
Regarding `CSCC[C@@H](C=O)NC(=O)[C@H](CC(C)C)NC(=O)[C@H](CC(C)C)NC(C)=O` [calpain inhibitor II, N-Acetyl-Leu-Leu-Methioninal] (Ac-Leu-Leu-Met-aldehyde), the “cytotoxic effect (cell survival, FIG. 1)” value in data set [2] is “slightly greater cytotoxicity than aprotinin”. Moreover, the “anticancer effect (tumor volume, FIG. 3)” value in data set [1] is “anticancer effect from the fourth dose”.
Take `CC(=O)N[C@@H](CC(C)C)C(=O)N[C@@H](CC(C)C)C(=O)N[C@H](C=O)CCCNC(=N)N` [leupeptin, N-acetyl-L-leucyl-L-leucyl-L-arginal]: in data set [2], the “cytotoxic effect (cell survival, FIG. 1)” value is “little cytotoxic effect”. Further, the “effect on growth or cytology compared to control cell cultures” value in data set [3] and in data set [4] was “did not affect the growth or cytology” each time.
aprotinin: the “effect on growth or cytology compared to control cell cultures” value in data set [3] and in data set [4] was “did not affect the growth or cytology” throughout.
